Data taken from article PMC4685874, “Bromotyrosine-derived alkaloids from the Caribbean sponge Aplysina lacunosa” (Beilstein Journal of Organic Chemistry, 2015).

Assays:
Type in all cases: cell-based
[1] = WST-1 cell proliferation (cytotoxicity) assay, MCF-7; conditions: human, MCF-7 breast cancer cell line, WST-1, incubated for 5 days
Method: (§1) The cytotoxicity was determined using WST-1 cell proliferation assays. Targeting cell lines are L929 mouse fibroblasts, KB-31 epidermoid carcinoma, and MCF-7 breast cancer cell lines which were incubated for 5 days with the test substances. The acute toxicity was determined using the FS4-LTM conditional immortalization human fibroblasts cell line which was incubated for 24 hours with the test compounds.

[2] = WST-1 cell proliferation (cytotoxicity) assay, KB-31; conditions: human, WST-1, incubated for 5 days
Method: as §1

[3] = system: KB-31 epidermoid carcinoma cells; assay: as above; conditions: WST-1, incubated for 5 days
Method: as §1

[4] = Acute toxicity, WST-1 assay, FS4-LTM; conditions: human, FS4-LTM conditionally immortalized fibroblasts, FS4-LTM conditional immortalization human fibroblasts, incubated for 24 hours; read-out: Cytotoxicity (acute toxicity) IC50 FS4-LTM
Method: as §1

[5] = WST-1 cell proliferation (cytotoxicity) assay, L929; conditions: L929 mouse fibroblasts, WST-1, incubated for 5 days
Method: as §1

[6] = system: FS4-LTM conditional immortalization human fibroblasts; assay: Acute toxicity, WST-1 assay, FS4-LTM; conditions: incubated for 24 hours, read-out: Cytotoxicity (acute toxicity) IC50 FS4-LTM
Method: as §1

[7] = system: MCF-7 breast cancer cell line; assay: WST-1 cell proliferation (cytotoxicity) assay, MCF-7; conditions: WST-1, incubated for 5 days
Method: as §1

[8] = KB-31 epidermoid carcinoma cells

Q: With COC1=C(Br)[C@H](O)[C@@]2(C=C1Br)CC(C(=O)NCCc1cc(Br)c(OCC(O)CNC(=O)C3=NO[C@]4(C=C(Br)C(OC)=C(Br)[C@@H]4O)C3)c(Br)c1)=NO2 (stereo partly shown) [Compound 7, 19-deoxyfistularin-3] as the compound, how does the IC50 at 5 days [1] read?
A: 60 µM

Q: What does the source list for COC1=C(Br)[C@H](O)[C@@]2(C=C1Br)CC(C(=O)NCCCOc1ccc([C@H](O)CNC(=O)C3=NO[C@]4(C=C(Br)C(OC)=C(Br)[C@@H]4O)C3)cc1Br)=NO2 [Compound 1, 14-debromo-11-deoxyfistularin-3]?
A: IC50 at 5 days [2, 8]: 69 µM; IC50 [3]: 68.8 µM

Q: With COC1=C(Br)[C@H](O)[C@@]2(C=C1Br)CC(C(=O)NCCCOc1c(Br)cc(C(O)CNC(=O)C3=NO[C@]4(C=C(Br)C(OC)=C(Br)[C@@H]4O)C3)cc1Br)=NO2 (stereo partly shown) [Compound 8, 11-deoxyfistularin-3] as the compound, how does the IC50 at 24 hours [4] read?
A: 87.3 µM

Q: What about the IC50 at 5 days ([1]; MCF-7 breast cancer cells) of the same compound?
A: 47.2 µM

Q: For COC1=C(Br)[C@H](O)[C@@]2(C=C1Br)CC(C(=O)NCCCOc1ccc(CCN)cc1Br)=NO2 [Compound 4, 14-debromoaraplysillin I], which IC50 at 5 days [5] is on record?
A: 94.3 µM

Q: And the IC50 at 5 days ([1]; MCF-7 breast cancer cells)?
A: 78.6 µM

Q: Which IC50 at 5 days [5] does the source give for CNc1nc(CCCNC(=O)C2=NO[C@]3(C=C(Br)C(OC)=C(Br)[C@@H]3O)C2)c[nH]1 [Compound 15, N-methyl-aerophobin-2] here?
A: 55.9 µM

Q: What about the IC50 at 5 days [2, 8] of the same compound?
A: 48.9 µM

Q: For COC1=C(Br)[C@H](O)[C@@]2(C=C1Br)CC(C(=O)NCCc1cc(Br)c(OCCCN)c(Br)c1)=NO2 [Compound 10, hexadellin B], which IC50 at 24 hours [4] is on record?
A: 73.4 µM

Q: And the IC50 at 5 days ([1]; MCF-7 breast cancer cells)?
A: 90.6 µM

Q: For COC1=C(Br)[C@@H]2OC(=O)C[C@]2(O)C=C1Br [Compound 16, aeroplysinin-2], which IC50 at 5 days [1] is on record?
A: 96.3 µM

Q: For COC1=C(Br)[C@H](O)[C@@]2(C=C1Br)CC(C(=O)NC[C@@H](O)c1cc(Br)c(OCCCNC(C)=O)c(Br)c1)=NO2 [Compound 2, aplysinin A], which IC50 [6] is on record?
A: 32.2 µM

Q: And the IC50 at 24 hours [4]?
A: 32 µM

Q: What about the IC50 at 5 days [2, 8] of the same compound?
A: 26 µM

Q: And the IC50 [3]?
A: 25.8 µM

Q: And the IC50 [7]?
A: 77.5 µM

Q: And the IC50 at 5 days ([1]; MCF-7 breast cancer cells)?
A: 78 µM

Q: With COC1=C(Br)[C@H](O)[C@@]2(C=C1Br)CC(C(=O)NCCCOc1c(Br)cc(CCNC(=O)C3=NO[C@]4(C=C(Br)C(OC)=C(Br)[C@@H]4O)C3)cc1Br)=NO2 [Compound 6, 11,19-dideoxyfistularin-3] as the compound, how does the IC50 at 5 days [5] read?
A: 118 µM

Q: And the IC50 at 5 days ([2]; KB-31 epidermoid carcinoma)?
A: 88.2 µM

Q: For COC1=C(Br)[C@H](O)[C@@]2(C=C1Br)CC(C(=O)NCC(O)COc1c(Br)cc(C(O)CNC(=O)C3=NO[C@]4(C=C(Br)C(OC)=C(Br)[C@@H]4O)C3)cc1Br)=NO2 (stereo partly shown) [Compound 5, fistularin-3], which IC50 at 5 days [1] is on record?
A: 207 µM

Q: For COC(=O)Cc1cc(Br)c(O)c(Br)c1O [Compound 17, subereaphenol B], which IC50 at 5 days ([1]; MCF-7 breast cancer cells) is on record?
A: 64.8 µM
